Results from PubChem BioAssay AID330 (DTP/NCI, 2004).
Where “and” joins values, the source holds several entries; their conditions need not be identical. Equal entries are not always repeated. Inconclusive results and toxic doses are left out. Rule for the calls: active = survival T/C of 150% or more; inactive = T/C below 125% in these data.

Tested on: P388 leukemia ip, CD2F1 mice, survival T/C
Experiment: NCI In Vivo Anticancer Drug Screen. Data for tumor model P388 Leukemia (intraperitoneal) in CD2F1 (CDF1) mice
Settings: endpoint: median survival time, higher = longer survival
Method in brief: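 Mice carrying the transplanted tumor received test compound or vehicle. Survival was recorded in each group, and the value is the treated-group measurement divided by that of the vehicle-treated control group.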

[1] = dose: 60.0 mg/kg/injection, schedule: Q01DX005 (ip), vehicle: Klucel (hydroxypropylcellulose) (HPC)
[2] = dose: 120.0 mg/kg/injection, schedule: Q01DX005 (ip), vehicle: Klucel (hydroxypropylcellulose) (HPC)
[3] = dose: 50.0 mg/kg/injection, schedule: Q01DX009 (ip), vehicle: saline
[4] = dose: 100.0 mg/kg/injection, schedule: Q01DX009 (ip), vehicle: saline
[5] = dose: 200.0 mg/kg/injection, schedule: Q01DX009 (ip), vehicle: saline
[6] = dose: 50.0 mg/kg/injection, schedule: Q01DX009 (ip), vehicle: saline with Tween-80
[7] = dose: 100.0 mg/kg/injection, schedule: Q01DX001 (ip), vehicle: saline with Tween-80
[8] = dose: 200.0 mg/kg/injection, schedule: Q01DX001 (ip), vehicle: saline with Tween-80
[9] = dose: 100.0 mg/kg/injection, schedule: Q01DX009 (ip), vehicle: saline with Tween-80
[10] = dose: 200.0 mg/kg/injection, schedule: Q01DX009 (ip), vehicle: saline with Tween-80
[11] = dose: 50.0 mg/kg/injection, schedule: Q01DX005 (ip), vehicle: saline with Tween-80
[12] = dose: 100.0 mg/kg/injection, schedule: Q01DX005 (ip), vehicle: saline with Tween-80
[13] = dose: 50.0 mg/kg/injection, schedule: Q01DX009 (ip), vehicle: Klucel (hydroxypropylcellulose) (HPC)
[14] = dose: 100.0 mg/kg/injection, schedule: Q01DX009 (ip), vehicle: Klucel (hydroxypropylcellulose) (HPC)
[15] = dose: 200.0 mg/kg/injection, schedule: Q01DX009 (ip), vehicle: Klucel (hydroxypropylcellulose) (HPC)

Measured: T/C

Cc1nc2c([N+](=O)[O-])cc(Cl)cc2[nH]1
inactive: dose: 30.0 mg/kg/injection, schedule: Q01DX005 (ip), vehicle: Klucel (hydroxypropylcellulose) (HPC) 107 % of control | [1] 107 % of control | [2] 103 % of control

Cc1ccc2nccnc2c1
inactive: [3] 101 % of control | [4] 99 % of control | [5] 101 % of control | dose: 400.0 mg/kg/injection, schedule: Q01DX009 (ip), vehicle: saline 100 % of control

CCCCOc1ccc(-n2c(=O)[nH]c3ccccc3c2=O)cc1
inactive: dose: 50.0 mg/kg/injection, schedule: Q01DX005 (ip), vehicle: Klucel (hydroxypropylcellulose) (HPC) 96 % of control | dose: 100.0 mg/kg/injection, schedule: Q01DX005 (ip), vehicle: Klucel (hydroxypropylcellulose) (HPC) 100 % of control | dose: 200.0 mg/kg/injection, schedule: Q01DX005 (ip), vehicle: Klucel (hydroxypropylcellulose) (HPC) 96 % of control

CCOC(=O)CCCCCNC(=S)N1c2c(nc(N)[nH]c2=O)NCC1CNc1ccc(C(=O)NC(CCC(=O)O)C(=O)O)cc1 (stereo not given)
inactive: dose: 100.0 mg/kg/injection, schedule: Q01DX001 (ip), vehicle: sodium bicarbonate 89 % of control | dose: 200.0 mg/kg/injection, schedule: Q01DX001 (ip), vehicle: sodium bicarbonate 90 % of control | dose: 400.0 mg/kg/injection, schedule: Q01DX001 (ip), vehicle: sodium bicarbonate 92 % of control

CCOC(=O)Nc1nc2ccc([N+](=O)[O-])cc2s1
inactive: dose: 6.25 mg/kg/injection, schedule: Q01DX009 (ip), vehicle: Klucel (hydroxypropylcellulose) (HPC) 104 % of control | dose: 12.5 mg/kg/injection, schedule: Q01DX009 (ip), vehicle: Klucel (hydroxypropylcellulose) (HPC) 107 % of control | dose: 25.0 mg/kg/injection, schedule: Q01DX009 (ip), vehicle: Klucel (hydroxypropylcellulose) (HPC) 105 % of control

CC(C)(CO)NC(=O)c1ccc(Br)cc1
inactive: dose: 25.0 mg/kg/injection, schedule: Q01DX009 (ip), vehicle: other 100 % of control | dose: 50.0 mg/kg/injection, schedule: Q01DX009 (ip), vehicle: other 100 % of control | dose: 100.0 mg/kg/injection, schedule: Q01DX009 (ip), vehicle: other 104 % of control | dose: 200.0 mg/kg/injection, schedule: Q01DX009 (ip), vehicle: other 100 % of control | dose: 400.0 mg/kg/injection, schedule: Q01DX009 (ip), vehicle: other 104 % of control

C=C1CCC2C1C1C(C(C)C)CCC21C (stereo not given)
inactive: dose: 12.5 mg/kg/injection, schedule: Q01DX009 (ip), vehicle: saline with Tween-80 92 % of control | dose: 25.0 mg/kg/injection, schedule: Q01DX009 (ip), vehicle: saline with Tween-80 96 % of control | [6] 93 % of control

CCC(c1ccc(OC)cc1)C(NCC(=O)N/N=C/c1ccc(N(C)C)cc1)c1ccc(OC)cc1 (stereo not given)
inactive: [7] 100 % of control | [8] 100 % of control | dose: 400.0 mg/kg/injection, schedule: Q01DX001 (ip), vehicle: saline with Tween-80 99 % of control

CCC(C)N(CC(C)C)CC(C)(O)CNc1cc(OC)cc2cccnc12 (stereo not given)
inactive: dose: 12.0 mg/kg/injection, schedule: Q01DX005 (ip), vehicle: saline 100 % of control | dose: 25.0 mg/kg/injection, schedule: Q01DX005 (ip), vehicle: saline 105 % of control | dose: 50.0 mg/kg/injection, schedule: Q01DX005 (ip), vehicle: saline 108 % of control and 96 % of control

N#C/C(=C\Nc1ccccn1)C(=O)C1CC1
inactive: dose: 60.0 mg/kg/injection, schedule: Q01DX005 (ip), vehicle: saline with Tween-80 100 % of control | dose: 120.0 mg/kg/injection, schedule: Q01DX005 (ip), vehicle: saline with Tween-80 92 % of control | dose: 240.0 mg/kg/injection, schedule: Q01DX005 (ip), vehicle: saline with Tween-80 91 % of control

CCOC(=O)/C=C(\C)Nc1ccccc1N
inactive: [7] 97 % of control | [8] 93 % of control

COC(=O)C1C(=O)C2CCC1C(=O)C2C(=O)OC (stereo not given)
inactive: [6] 93 % of control | [9] 93 % of control | [10] 98 % of control

COC1C(O)CC(OC2C(C)OC(Oc3cc(O)c4c(O)c5c(cc4c3)C[C@@H]([C@H](OC)C(=O)[C@@H](O)[C@@H](C)O)[C@H](OC3CC(OC4CC(OC6CC(C)(O)C(O)C(C)O6)C(O)C(C)O4)C(O)C(C)O3)C5=O)CC2OC(C)=O)OC1C (stereo not given in full)
inactive: dose: 37.5 mg/kg/injection, schedule: Q01DX009 (ip), vehicle: saline 107 % of control | dose: 75.0 mg/kg/injection, schedule: Q01DX009 (ip), vehicle: saline 111 % of control | dose: 150.0 mg/kg/injection, schedule: Q01DX009 (ip), vehicle: saline 98 % of control | dose: 300.0 mg/kg/injection, schedule: Q01DX009 (ip), vehicle: saline 107 % of control

O=C(O)C1(Br)CC2(C1)CC(Br)(C(=O)O)C2 (stereo not given)
inactive: dose: 100.0 mg/kg/injection, schedule: Q04DX002 (ip), vehicle: other 94 % of control | dose: 200.0 mg/kg/injection, schedule: Q04DX002 (ip), vehicle: other 91 % of control | dose: 400.0 mg/kg/injection, schedule: Q04DX002 (ip), vehicle: other 103 % of control

O=C(c1ccc(Cl)cc1)C(O)NC(=S)c1ccc(Cl)cc1 (stereo not given)
inactive: [6] 96 % of control | [9] 111 % of control | [10] 113 % of control

CCOC(=NC#N)NOC
inactive: [1] 93 % of control | [2] 98 % of control | dose: 240.0 mg/kg/injection, schedule: Q01DX005 (ip), vehicle: Klucel (hydroxypropylcellulose) (HPC) 102 % of control

O=C(O)c1cnc2ccccn12
inactive: dose: 50.0 mg/kg/injection, schedule: Q01DX009 (ip), vehicle: acetone 112 % of control | [3] 95 % of control | dose: 100.0 mg/kg/injection, schedule: Q01DX009 (ip), vehicle: acetone 117 % of control | [4] 96 % of control | dose: 200.0 mg/kg/injection, schedule: Q01DX009 (ip), vehicle: acetone 102 % of control | [5] 107 % of control

Cc1ccc(S(=O)(=O)NC(=O)ON2CCCCC2)cc1
inactive: dose: 50.0 mg/kg/injection, schedule: Q01DX009 (ip), vehicle: saline + Tween-80 + alcohol 95 % of control | dose: 100.0 mg/kg/injection, schedule: Q01DX009 (ip), vehicle: saline + Tween-80 + alcohol 95 % of control | dose: 200.0 mg/kg/injection, schedule: Q01DX009 (ip), vehicle: saline + Tween-80 + alcohol 92 % of control

O=C1OC2=CC=CC=CC2C12C1C=CC=CC12 (stereo not given)
inactive: [6] 100 % of control | [9] 105 % of control | [10] 104 % of control

CC(C)(c1cc(Cl)c(OCCO)c(Cl)c1)c1cc(Cl)c(OCCO)c(Cl)c1
inactive: dose: 100.0 mg/kg/injection, schedule: Q04DX003 (ip), vehicle: saline with Tween-80 100 % of control | dose: 200.0 mg/kg/injection, schedule: Q04DX003 (ip), vehicle: saline with Tween-80 100 % of control | dose: 400.0 mg/kg/injection, schedule: Q04DX003 (ip), vehicle: saline with Tween-80 95 % of control

Cn1cnccc1=O
inactive: dose: 6.25 mg/kg/injection, schedule: Q01DX009 (ip), vehicle: saline 102 % of control | dose: 12.5 mg/kg/injection, schedule: Q01DX009 (ip), vehicle: saline 103 % of control | dose: 25.0 mg/kg/injection, schedule: Q01DX009 (ip), vehicle: saline 106 % of control | [3] 106 % of control | [4] 103 % of control

COc1ccc(B2OCCO2)cc1
inactive: [11] 100 % of control | [12] 97 % of control | dose: 200.0 mg/kg/injection, schedule: Q01DX005 (ip), vehicle: saline with Tween-80 101 % of control

CC1(C)NNC(=S)NC1=O
inactive: [13] 99 % of control | [6] 100 % of control | [14] 97 % of control | [9] 113 % of control | [15] 94 % of control | [10] 97 % of control

Cc1nc2ccccc2n(CC2CCCN3CCCC[C@H]23)c1=O (stereo not given in full)
inactive: [11] 97 % of control | [12] 101 % of control

Clc1ccc(N=Cc2cccs2)cc1Cl
inactive: [13] 110 % of control | [14] 107 % of control | [15] 110 % of control
